From patent US11970493B2, “Autotaxin inhibitor compounds” (ILDONG PHARMACEUTICAL CO., LTD., priority 2020, dated 2024)
Counter-ions that a name gives are not always drawn.

Biological target: hATX/ENPP2 (Homo sapiens, UniProt Q13822)
Test: hATX/ENPP2 biochemical assay using 16:0-LPC as substrate (Amplex Red/choline oxidase/HRP fluorescence)
Conditions: hENPP2 2.5 nM, LPC (16:0) substrate
Procedure: The enzyme is diluted in 50 mM Tris-HCl pH 8.0, 140 mM NaCl, 5 mM CaCl2, 0.01% Triton X-100 in a total volume of 5 μL. The aqueous solution of enzyme is added to the wells and incubated with different concentrations of the compounds at room temperature for 15 min. The reaction is started by the addition of 5 μL of 80 μM LPC (16:0) and 10 μL of the detection mixture containing 200 μM Amplex Red, 10 U/mL choline oxidase and 4 U/mL HRP. Fluorescence at 590 nm was measured kinetically with excitation at 530 nm. The slope of the curve (from 60 to 70 min of the reaction time) was used to calculate the compounds' IC50 values.

Compound	IC50
CCc1nc2ccc(-c3cnc(C(=O)N4CC[C@@H](O)C4)nc3)cn2c1N(C)c1nc(-c2ccc(F)cc2)c(C#N)s1 [Compound 49, (R)-2-((2-ethyl-6-(2-(3-hydroxypyrrolidine-1-carbonyl)pyrimidin-5-yl)imidazo[1,2-a]pyridin-3-yl)(methyl)amino)-4-(4-fluorophenyl) thiazole-5-carbonitrile]	20 to 200 nM
CCc1nc2ccc(-c3cnc(NCC4CN(C(=O)C5(O)CC5)C4)nc3)cn2c1N(C)c1nc(-c2ccc(F)cc2)c(C#N)s1 [Compound 41, 2-((2-ethyl-6-(2-(((1-(1-hydroxycyclopropane-1-carbonyl)azetidin-3-yl)methyl)amino)pyrimidin-5-yl)imidazo[1,2-a]pyridin-3-yl)(methyl)amino)-4-(4-fluorophenyl)thiazole-5-carbonitrile]	20 to 200 nM
CCc1nc2ccc(-c3cnc(CC(=O)NC4(C#N)CC4)nc3)cn2c1N(C)c1nc(-c2ccc(F)cc2)c(C#N)s1 [Compound 64, 2-(5-(3-((5-cyano-4-(4-fluorophenyl)thiazol-2-yl)(methyl)amino)-2-ethylimidazo[1,2-a]pyridin-6-yl)pyrimidin-2-yl)-N-(1-cyanocyclopropyl)acetamide]	20 to 200 nM
CCc1nc2ccc(-c3cnc(CC(=O)NC4CC4)nc3)cn2c1N(C)c1nc(-c2ccc(F)cc2)c(C#N)s1 [Compound 62, 2-(5-(3-((5-cyano-4-(4-fluorophenyl)thiazol-2-yl)(methyl)amino)-2-ethylimidazo[1,2-a]pyridin-6-yl)pyrimidin-2-yl)-N-cyclopropyl acetamide]	20 to 200 nM
CCc1nc2ccc(-c3cnc(C(=O)N4CC(N5CCC5)C4)nc3)cn2c1N(C)c1nc(-c2ccc(F)cc2)c(C#N)s1 [Compound 14, 2-((6-(2-([1,3′-biazetidine]-1′-carbonyl)pyrimidin-5-yl)-2-ethylimidazo[1,2-a]pyridin-3-yl)(methyl)amino)-4-(4-fluorophenyl) thiazole-5-carbonitrile]	20 to 200 nM
CCc1nc2ccc(-c3cnc(N4CC(NC(=O)[C@H]5C[C@@H](O)CN5)C4)nc3)cn2c1N(C)c1nc(-c2ccc(F)cc2)c(C#N)s1 [Compound 25, (2R,4R)—N-(1-(5-(3-((5-cyano-4-(4-fluorophenyl)thiazol-2-yl)(methyl)amino)-2-ethylimidazo[1,2-a]pyridin-6-yl)pyrimidin-2-yl)azetidin-3-yl)-4-hydroxypyrrolidine-2-carboxamide]	20 to 200 nM
CCc1nc2ccc(-c3cnc(N4CC(NC5CCC5)C4)nc3)cn2c1N(C)c1nc(-c2ccc(F)cc2)c(C#N)s1 [Compound 106, 2-((6-(2-(3-(cyclobutylamino)azetidin-1-yl)pyrimidin-5-yl)-2-ethylimidazo[1,2-a]pyridin-3-yl)(methyl)amino)-4-(4-fluorophenyl)thiazole-5-carbonitrile]	20 to 200 nM
CCc1nc2ccc(-c3cnc(C4CCN(CC(=O)N5CCC5)CC4)nc3)cn2c1N(C)c1nc(-c2ccc(F)cc2)c(C#N)s1 [Compound 103, 2-((6-(2-(1-(2-(azetidin-1-yl)-2-oxoethyl)piperidin-4-yl)pyrimidin-5-yl)-2-ethylimidazo[1,2-a]pyridin-3-yl)(methyl)amino)-4-(4-fluorophenyl)thiazole-5-carbonitrile]	20 to 200 nM
CCc1nc2ccc(-c3cnc(NCC4CN(C(=O)N5CC(O)C5)C4)nc3)cn2c1N(C)c1nc(-c2ccc(F)cc2)c(C#N)s1 [Compound 39, 2-((2-ethyl-6-(2-(((1-(3-hydroxyazetidine-1-carbonyl)azetidin-3-yl)methyl)amino)pyrimidin-5-yl)imidazo[1,2-a]pyridin-3-yl)(methyl)amino)-4-(4-fluorophenyl)thiazole-5-carbonitrile]	20 to 200 nM
CCc1nc2ccc(-c3cnc(C4CCN(C(=O)C5CC5)CC4)nc3)cn2c1N(C)c1nc(-c2ccc(F)cc2)c(C#N)s1 [Compound 99, 2-((6-(2-(1-(cyclopropanecarbonyl)piperidin-4-yl)pyrimidin-5-yl)-2-ethylimidazo[1,2-a]pyridin-3-yl)(methyl)amino)-4-(4-fluorophenyl)thiazole-5-carbonitrile]	20 to 200 nM
CCc1nc2ccc(-c3cnc(CC(=O)N4CCNCC4)nc3)cn2c1N(C)c1nc(-c2ccc(F)cc2)c(C#N)s1 [Compound 58, 2-((2-ethyl-6-(2-(2-oxo-2-(piperazin-1-yl)ethyl)pyrimidin-5-yl)imidazo[1,2-a]pyridin-3-yl)(methyl)amino)-4-(4-fluorophenyl)thiazole-5-carbonitrile]	20 to 200 nM
CCc1nc2ccc(-c3cnc(CC(=O)N4CC(NC5CNC5)C4)nc3)cn2c1N(C)c1nc(-c2ccc(F)cc2)c(C#N)s1 [Compound 53, 2-((6-(2-(2-(3-(azetidin-3-ylamino)azetidin-1-yl)-2-oxoethyl)pyrimidin-5-yl)-2-ethylimidazo[1,2-a]pyridin-3-yl)(methyl)amino)-4-(4-fluorophenyl)thiazole-5-carbonitrile]	20 to 200 nM

More lines, now with the values ahead:

IC50	Compound
20 to 200 nM	CCc1nc2ccc(-c3cnc(N4CC(NC(=O)C5(C#N)CC5)C4)nc3)cn2c1N(C)c1nc(-c2ccc(F)cc2)c(C#N)s1 [Compound 29, 1-cyano-N-(1-(5-(3-((5-cyano-4-(4-fluorophenyl)thiazol-2-yl)(methyl)amino)-2-ethylimidazo[1,2-a]pyridin-6-yl)pyrimidin-2-yl)azetidin-3-yl)cyclopropane-1-carboxamide]
20 to 200 nM	CCc1nc2ccc(-c3cnc(N4CC(N)C4)nc3)cn2c1N(C)c1nc(-c2ccc(F)cc2)c(C#N)s1 [Compound 3, 2-((6-(2-(3-aminoazetidin-1-yl)pyrimidin-5-yl)-2-ethylimidazo[1,2-a]pyridin-3-yl)(methyl)amino)-4-(4-fluorophenyl)thiazole-5-carbonitrile]
20 to 200 nM	CCc1nc2ccc(-c3cnc(CC(=O)N4CC(NC)C4)nc3)cn2c1N(C)c1nc(-c2ccc(F)cc2)c(C#N)s1 [Compound 54, 2-((2-ethyl-6-(2-(2-(3-(methylamino)azetidin-1-yl)-2-oxoethyl)pyrimidin-5-yl)imidazo[1,2-a]pyridin-3-yl)(methyl)amino)-4-(4-fluorophenyl) thiazole-5-carbonitrile]
≤ 20 nM	CCc1nc2ccc(-c3cnc(N4CCC(NC(=O)[C@H]5C[C@@H](O)CN5)CC4)nc3)cn2c1N(C)c1nc(-c2ccc(F)cc2)c(C#N)s1 [Compound 76, (2R,4R)—N-(1-(5-(3-((5-cyano-4-(4-fluorophenyl)thiazol-2-yl)(methyl)amino)-2-ethylimidazo[1,2-a]pyridin-6-yl)pyrimidin-2-vl)piperidin-4-yl)-4-hydroxypyrrolidine-2-carboxamide]
≤ 20 nM	CCc1nc2ccc(-c3cnc(N4CCC(NC(=O)[C@H]5C[C@H](O)CN5)CC4)nc3)cn2c1N(C)c1nc(-c2ccc(F)cc2)c(C#N)s1 [Compound 74, (2R,4S)—N-(1-(5-(3-((5-cyano-4-(4-fluorophenyl)thiazol-2-yl)(methyl)amino)-2-ethylimidazo[1,2-a]pyridin-6-yl)pyrimidin-2-yl)piperidin-4-yl)-4-hydroxypyrrolidine-2-carboxamide]
20 to 200 nM	CCc1nc2ccc(-c3cnc(N4CCC(NC5(C#N)CC5)CC4)nc3)cn2c1N(C)c1nc(-c2ccc(F)cc2)c(C#N)s1 [Compound 17, 2-((6-(2-(4-((1-cyanocyclopropyl)amino)piperidin-1-yl)pyrimidin-5-yl)-2-ethylimidazo[1,2-a]pyridin-3-yl)(methyl)amino)-4-(4-fluorophenyl)thiazole-5-carbonitrile]
20 to 200 nM	CCc1nc2ccc(-c3cnc(NC4CN(C(=O)N5CC(O)C5)C4)nc3)cn2c1N(C)c1nc(-c2ccc(F)cc2)c(C#N)s1 [Compound 37, 2-((2-ethyl-6-(2-((1-(3-hydroxyazetidine-1-carbonyl)azetidin-3-yl)amino)pyrimidin-5-yl)imidazo[1,2-a]pyridin-3-yl)(methyl)amino)-4-(4-fluorophenyl)thiazole-5-carbonitrile]
20 to 200 nM	CCc1nc2ccc(-c3cnc(C(=O)NC4CNC4)nc3)cn2c1N(C)c1nc(-c2ccc(F)cc2)c(C#N)s1 [Compound 50, N-(azetidin-3-yl)-5-(3-((5-cyano-4-(4-fluorophenyl)thiazol-2-yl) (methyl)amino)-2-ethylimidazo[1,2-a]pyridin-6-yl)pyrimidine-2-carboxamide]
≤ 20 nM	CCc1nc2ccc(-c3cnc(N4CCC(NC5CNC5)CC4)nc3)cn2c1N(C)c1nc(-c2ccc(F)cc2)c(C#N)s1 [Compound 68 formate, 2-((6-(2-(4-(azetidin-3-ylamino)piperidin-1-yl)pyrimidin-5-yl)-2-ethylimidazo[1,2-a]pyridin-3-yl)(methyl)amino)-4-(4-fluorophenyl)thiazole-5-carbonitrile formate]
≤ 20 nM	CCc1nc2ccc(-c3cnc(N4CCN(CC(=O)N5CC[C@@H](O)C5)CC4)nc3)cn2c1N(C)c1nc(-c2ccc(F)cc2)c(C#N)s1 [Compound 45, (R)-2-((2-ethyl-6-(2-(4-(2-(3-hydroxypyrrolidin-1-yl)-2-oxoethyl)piperazin-1-yl)pyrimidin-5-yl)imidazo[1,2-a]pyridin-3-yl)(methyl)amino)-4-(4-fluorophenyl)thiazole-5-carbonitrile]
≤ 20 nM	CCc1nc2ccc(-c3ccc(N4CCC(NC5(CO)CC5)CC4)nc3)cn2c1N(C)c1nc(-c2ccc(F)cc2)c(C#N)s1 [Compound 88, 2-((2-ethyl-6-(6-(4-((1-(hydroxymethyl)cyclopropyl)amino)piperidin-1-yl)pyridin-3-yl)imidazo[1,2-a]pyridin-3-yl)(methyl)amino)-4-(4-fluorophenyl)thiazole-5-carbonitrile]
